Source: patent US20100247579A1, “THERAPEUTIC AGENT FOR CANCER” (priority 2007, published 2010)
Where a name gives a salt, the structure may show the parent alone. Read-outs that look alike come from different tables or passages of the source.

Columns and labels:
[1] = system: lymphocytes derived from cancer patient No. PT009 expanded with OKT3 and CH-296; experiment: Resistance to anticancer agents, WST-1 GI50 on cultured lymphocytes of cancer patient No. PT009; format: cell-based, human; conditions: day 10 of culture with OKT3 and CH-296, 20 hours with drug
Protocol: After that, the suspension was stained by the trypan blue staining method to calculate the viable cell count, and then subjected to each experiment.
(§1) On the other hand, the IL-2/5HRPMI was added to the control group in 50 μL/well each.
(§2) These culture plates were incubated at 37° C. for 20 hours in the presence of 5% CO2. After the incubation, WST-1 (Premix WST-1 Cell Proliferation Assay System, manufactured by Takara Bio Inc.) was added in 20 μL/well each to each well of the plate, and incubated in the presence of 5% CO2 at 37° C. for 4 hours. The plates after the incubation were centrifuged at 500×g at room temperature for 5 minutes. After the centrifugation, 100 μL of the supernatant was collected from each well, and the absorbance was measured at an absorption wavelength of 450 nm and a control wavelength of 630 nm [hereinafter referred to as the absorbance (450 nm-630 nm)] using a microplate reader (manufactured by Bio-Rad Laboratories, Inc., Model Number 680XR), and then the specific absorbance (450 nm-630 nm) was calculated according to the following formula.
(§3) Specific absorbance (450 nm-630 nm)=Absorbance of Test Cell Addition Group (450 nm-630 nm)−Absorbance of Control Group (450 nm-630 nm) Formula 2: […]

[2] = system: expanded lymphocytes derived from a human healthy donor; experiment: Resistance to anticancer agents, WST-1 GI50 on cultured lymphocytes of a human healthy donor; format: cell-based; conditions: for GI50: Homo sapiens, Lymphocyte
Protocol: as §1, §2, §3
Here, a group where only OKT3 was immobilized to the culture equipment in the expansion of the lymphocytes was also set.
However, in the case of paclitaxel, a human AB type serum was used as a solvent for dilution, and for other drugs, 5HRPMI was used for dilution.

Question: Which results are given for `N.N.O=C([O-])C1(C(=O)[O-])CCC1.[Pt+2]` [Carboplatin, carboplatin]?
Answer: GI50 [1]: 215.5 µg/mL; GI50 (μg/mL) Initial Stimulation OKT3 + CH-296 ([2]; healthy donor lymphocytes expanded with OKT3 + CH-296): 161.31 µg/mL; GI50 (μg/mL) Initial Stimulation OKT3 ([2]; healthy donor lymphocytes expanded with OKT3 alone): 116.16 µg/mL

Question: With `N.N.[Cl][Pt][Cl]` [Cisplatin, cisplatin] as the molecule, how does the “GI50” value [1] read?
Answer: Its value is 3.7 µg/mL.

Question: Which GI50 ([1]; Homo sapiens, Lymphocyte, read-out: GI50) does the source give for `COc1cccc2c1C(=O)c1c(O)c3c(c(O)c1C2=O)C[C@@](O)(C(=O)CO)C[C@@H]3O[C@H]1C[C@H](N)[C@H](O)[C@H](C)O1` [Doxorubicin Hydrochloride, doxorubicin hydrochloride] here?
Answer: Its GI50 is 0.5 µg/mL.

Question: And the GI50 ([2]; healthy donor lymphocytes expanded with OKT3 + CH-296, read-out: GI50 (μg/mL) Initial Stimulation OKT3 + CH-296)?
Answer: The GI50 was 0.41 µg/mL.

Question: What about the GI50 ([2]; healthy donor lymphocytes expanded with OKT3 alone, read-out: GI50 (μg/mL) Initial Stimulation OKT3) of the same molecule?
Answer: Its GI50 is 0.25 µg/mL.
